Here are results for 13 compounds from US11834460B2, “Imide-based modulators of proteolysis and associated methods of use” (YALE UNIVERSITY, priority 2018, dated 2023).

For this test, the system named is c-Myc. In words: c-Myc ELISA assay protocol in 22RV-1 cells. In kind it is cell-based, human. As to conditions: 18 h, read-out: cMyc IC50. Here is the method: In each bioassay, cells were treated with varying amounts of compounds encompassed by the present disclosure, as shown in Table 1. The degradation of the following proteins were evaluated in this study: TANK-binding kinase 1 (TBK1), estrogen receptor α (ERα), bromodomain-containing protein 4 (BRD4), androgen receptor (AR), and c-Myc.
5. c-Myc ELISA Assay Protocol
22RV-1 cells were purchased from ATCC and cultured in RPMI+10% FBS media. Cells were harvested using trypsin (Gibco #25200-114), counted and seeded at 30,000 cells/well at a volume of 75 μL/well in RPMI +10% FBS media in 96-well plates. The cells were dosed with compounds diluted in 0.1% DMSO, incubated for 18 h then washed and lysed in 50 uL RIPA buffer (50 mM Tris pH8, 150 mM NaCl, 1% Tx-100, 0.1% SDS, 0.5% sodium deoxycholate) supplemented with protease and phosphatase inhibitors. The lysates were clarified at 4000 rpm at 4° C. for 10 minutes then aliquots were added into a 96-well ELISA plate of Novex Human c-myc ELISA kit from Life Technologies Catalog #KHO2041. 50 ul of c-Myc Detection antibody was added into every well, the plates incubated at room temperature for 3 hrs, then washed with ELISA wash buffer. 100 uL of the anti-rabbit IgG-HRP secondary antibody was added to each well and incubated at room temperature for 30 minutes. The plates were washed with ELISA wash buffer, 100 μL TMB added to each well, and then monitored every 5 minutes for a color change. 100 μL of stop solution is added and the plates read at 450 nm.

The IC50 is the concentration that gives 50% inhibition. As for `Cc1sc2c(c1C)C(c1ccc(Cl)cc1)=N[C@@H](CC(=O)N[C@@H](C)c1ccc(OCCOCCNc3cccc4c3C(=O)N(C3CCC(=O)NC3=O)C4=O)c(F)c1)c1nnc(C)n1-2` (stereo partly drawn) [Compound 48, 2-[(9S)-7-(4-chlorophenyl)-4,5,13-trimethyl-3-thia-1,8,11,12-tetraazatricyclo [8.3.0.0^2,^6]trideca-2(6),4,7,10,12-pentaen-9-yl]-N-[(1S)-1-{4-[2-(2-{[2-(2,6-dioxopiperidin-3-yl)-1,3-dioxo-2,3-dihydro-1H-isoindol-4-yl]amino}ethoxy)ethoxy]-3-fluorophenyl}ethyl]acetamide], the IC50 was under 50 nM.

As to `Cc1sc2c(c1C)C(c1ccc(Cl)cc1)=N[C@@H](CC(=O)Nc1ccc(OCCOCCOCCOCCNc3cccc4c3C(=O)N(C3(C)CCC(=O)NC3=O)C4=O)cc1)c1nnc(C)n1-2` (stereo partly drawn) [Compound 49, 2-[(9S)-7-(4-chlorophenyl)-4,5,13-trimethyl-3-thia-1,8,11,12-tetraazatricyclo [8.3.0.0^2,^6]trideca-2(6),4,7,10,12-pentaen-9-yl]-N-[4-({1-[2-(3-methyl-2,6-dioxopiperidin-3-yl)-1,3-dioxo-2,3-dihydro-1H-isoindol-4-yl]-4,7,10-trioxa-1-azadodecan-12-yl}oxy)phenyl] acetamide], the half-maximal inhibitory concentration (IC50) was over 50 nM. The result for `Cc1sc2c(c1C)C(c1ccc(Cl)cc1)=N[C@@H](CC(=O)Nc1ccc(OCCOCCOCCOCCNc3cccc4c3C(=O)N(C3CCC(=O)N(C)C3=O)C4=O)cc1)c1nnc(C)n1-2` (stereo partly drawn) [Compound 50, 2-[(9S)-7-(4-chlorophenyl)-4,5,13-trimethyl-3-thia-1,8,11,12-tetraazatricyclo [8.3.0.0^2,^6]trideca-2(6),4,7,10,12-pentaen-9-yl]-N-[4-({1-[2-(1-methyl-2,6-dioxopiperidin-3-yl)-1,3-dioxo-2,3-dihydro-1H-isoindol-4-yl]-4,7,10-trioxa-1-azadodecan-12-yl}oxy)phenyl] acetamide] reads over 50 nM; that for `Cc1sc2c(c1C)C(c1ccc(Cl)cc1)=N[C@@H](CC(=O)N[C@H](C)c1cccc(OCCCNc3cccc4c3CN(C3CCC(=O)NC3=O)C4=O)c1)c1nnc(C)n1-2` (stereo partly drawn) [Compound 51, 2-[(9S)-7-(4-chlorophenyl)-4,5,13-trimethyl-3-thia-1,8,11,12-tetraazatricyclo [8.3.0.0^2,^6]trideca-2(6),4,7,10,12-pentaen-9-yl]-N-[(1R)-1-[3-(3-{[2-(2,6-dioxopiperidin-3-yl)-1-oxo-2,3-dihydro-1H-isoindol-4-yl]amino}propoxy)phenyl]ethyl] acetamide], over 50 nM. With `Cc1sc2c(c1C)C(c1ccc(Cl)cc1)=N[C@@H](CC(=O)N[C@H]1CCN(C(=O)c3ccc(NCCNc4cccc5c4C(=O)N(C4CCC(=O)NC4=O)C5=O)cc3)C1)c1nnc(C)n1-2` (stereo partly drawn) [Compound 52, 2-[(9S)-7-(4-chlorophenyl)-4,5,13-trimethyl-3-thia-1,8,11,12-tetraazatricyclo [8.3.0.0^2,^6]trideca-2(6),4,7,10,12-pentaen-9-yl]-N-[(3S)-1-{4-[(2-{[2-(2,6-dioxopiperidin-3-yl)-1,3-dioxo-2,3-dihydro-1H-isoindol-4-yl]amino}ethyl)amino]benzoyl}pyrrolidin-3-yl]acetamide], the IC50 was over 50 nM.

In the case of `Cc1sc2c(c1C)C(c1ccc(Cl)cc1)=N[C@@H](CC(=O)NCCOCCNc1cccc3nc(C)n(C4CCC(=O)NC4=O)c(=O)c13)c1nnc(C)n1-2` (stereo partly drawn) [Compound 53, 2-[(9S)-7-(4-chlorophenyl)-4,5,13-trimethyl-3-thia-1,8,11,12-tetraazatricyclo [8.3.0.0^2,^6]trideca-2(6),4,7,10,12-pentaen-9-yl]-N-[2-(2-{[3-(2,6-dioxopiperidin-3-yl)-2-methyl-4-oxo-3,4-dihydroquinazolin-5-yl]amino}ethoxy)ethyl]acetamide], the half-maximal inhibitory concentration (IC50) was over 50 nM. With `Cc1sc2c(c1C)C(c1ccc(Cl)cc1)=N[C@@H](CC(=O)NCCCOCCCNc1cccc3c1CN(C1CCC(=O)NC1=O)C3=O)c1nnc(C)n1-2` (stereo partly drawn) [Compound 54, 2-[(9S)-7-(4-chlorophenyl)-4,5,13-trimethyl-3-thia-1,8,11,12-tetraazatricyclo [8.3.0.0^2,^6]trideca-2(6),4,7,10,12-pentaen-9-yl]-N-[3-(3-{[2-(2,6-dioxopiperidin-3-yl)-1-oxo-2,3-dihydro-1H-isoindol-4-yl]amino}propoxy)propyl]acetamide], the IC50 is under 50 nM. The same measure for `Cc1sc2c(c1C)C(c1ccc(Cl)cc1)=N[C@@H](CC(=O)N[C@H]1CCN(C(=O)c3ccc(OCCNc4cccc5c4C(=O)N(C4CCC(=O)NC4=O)C5=O)cc3)C1)c1nnc(C)n1-2` (stereo partly drawn) [Compound 55, 2-[(9S)-7-(4-chlorophenyl)-4,5,13-trimethyl-3-thia-1,8,11,12-tetraazatricyclo [8.3.0.0^2,^6]trideca-2(6),4,7,10,12-pentaen-9-yl]-N-[(3S)-1-[4-(2-{[2-(2,6-dioxopiperidin-3-yl)-1,3-dioxo-2,3-dihydro-1H-isoindol-4-yl]amino}ethoxy)benzoyl]pyrrolidin-3-yl]acetamide]: under 50 nM; for `Cc1sc2c(c1C)C(c1ccc(Cl)cc1)=N[C@@H](CC(=O)Nc1ccc(OCCOCCOCCNc3cccc4nc(C)n(C5CCC(=O)NC5=O)c(=O)c34)cc1)c1nnc(C)n1-2` (stereo partly drawn) [Compound 56, 2-[(9S)-7-(4-chlorophenyl)-4,5,13-trimethyl-3-thia-1,8,11,12-tetraazatricyclo [8.3.0.0^2,^6]trideca-2(6),4,7,10,12-pentaen-9-yl]-N-(4-{2-[2-(2-{[3-(2,6-dioxopiperidin-3-yl)-2-methyl-4-oxo-3,4-dihydroquinazolin-5-yl]amino}ethoxy)ethoxy]ethoxy}phenyl)acetamide]: under 50 nM; for `Cc1sc2c(c1C)C(c1ccc(Cl)cc1)=N[C@@H](CC(=O)NCCCCCNc1cccc3c1CN(C1CCC(=O)NC1=O)C3=O)c1nnc(C)n1-2` (stereo partly drawn) [Compound 57, 2-[(9S)-7-(4-chlorophenyl)-4,5,13-trimethyl-3-thia-1,8,11,12-tetraazatricyclo [8.3.0.0^2,^6]trideca-2(6),4,7,10,12-pentaen-9-yl]-N-(5-{[2-(2,6-dioxopiperidin-3-yl)-1-oxo-2,3-dihydro-1H-isoindol-4-yl]amino}pentyl) acetamide]: under 50 nM.

As to `Cc1sc2c(c1C)C(c1ccc(Cl)cc1)=N[C@@H](CC(=O)NCCCOCCCNc1cccc3nc(C)n(C4CCC(=O)NC4=O)c(=O)c13)c1nnc(C)n1-2` (stereo partly drawn) [Compound 58, 2-[(9S)-7-(4-chlorophenyl)-4,5,13-trimethyl-3-thia-1,8,11,12-tetraazatricyclo [8.3.0.0^2,^6]trideca-2(6),4,7,10,12-pentaen-9-yl]-N-[3-(3-{[3-(2,6-dioxopiperidin-3-yl)-2-methyl-4-oxo-3,4-dihydroquinazolin-5-yl]amino}propoxy)propyl]acetamide], the IC50 is over 50 nM. `Cc1sc2c(c1C)C(c1ccc(Cl)cc1)=N[C@@H](CC(=O)N[C@H]1CCN(C(=O)c3ccc(OCCNc4cccc5c4CN(C4CCC(=O)NC4=O)C5=O)cc3)C1)c1nnc(C)n1-2` (stereo partly drawn) [Compound 59, 2-[(9S)-7-(4-chlorophenyl)-4,5,13-trimethyl-3-thia-1,8,11,12-tetraazatricyclo [8.3.0.0^2,^6]trideca-2(6),4,7,10,12-pentaen-9-yl]-N-[(3S)-1-[4-(2-{[2-(2,6-dioxopiperidin-3-yl)-1-oxo-2,3-dihydro-1H-isoindol-4-yl]amino}ethoxy)benzoyl]pyrrolidin-3-yl]acetamide]: the IC50 is over 50 nM. The result for `Cc1sc2c(c1C)C(c1ccc(Cl)cc1)=N[C@@H](CC(=O)N[C@H](C)c1cccc(OCCNc3cccc4c3CN(C3CCC(=O)NC3=O)C4=O)c1)c1nnc(C)n1-2` (stereo partly drawn) [Compound 60, 2-[(9S)-7-(4-chlorophenyl)-4,5,13-trimethyl-3-thia-1,8,11,12-tetraazatricyclo [8.3.0.0^2,^6]trideca-2(6),4,7,10,12-pentaen-9-yl]-N-[(1R)-1-[3-(2-{[2-(2,6-dioxopiperidin-3-yl)-1-oxo-2,3-dihydro-1H-isoindol-4-yl]amino}ethoxy)phenyl]ethyl] acetamide] reads over 50 nM.
